{"source": "patent US9902696B2", "about": "“1,4-substituted piperidine derivatives” (Cephalon, Inc., priority 2015, dated 2018)", "note": "Counter-ions that a name gives are not always drawn."}
{"molecular_target": "T1, recombinant human baculovirus-expressed GST-tagged FASN (Homo sapiens, UniProt P49327)", "T1 construct": "GST", "T1 sequence (P49327 whole entry)": "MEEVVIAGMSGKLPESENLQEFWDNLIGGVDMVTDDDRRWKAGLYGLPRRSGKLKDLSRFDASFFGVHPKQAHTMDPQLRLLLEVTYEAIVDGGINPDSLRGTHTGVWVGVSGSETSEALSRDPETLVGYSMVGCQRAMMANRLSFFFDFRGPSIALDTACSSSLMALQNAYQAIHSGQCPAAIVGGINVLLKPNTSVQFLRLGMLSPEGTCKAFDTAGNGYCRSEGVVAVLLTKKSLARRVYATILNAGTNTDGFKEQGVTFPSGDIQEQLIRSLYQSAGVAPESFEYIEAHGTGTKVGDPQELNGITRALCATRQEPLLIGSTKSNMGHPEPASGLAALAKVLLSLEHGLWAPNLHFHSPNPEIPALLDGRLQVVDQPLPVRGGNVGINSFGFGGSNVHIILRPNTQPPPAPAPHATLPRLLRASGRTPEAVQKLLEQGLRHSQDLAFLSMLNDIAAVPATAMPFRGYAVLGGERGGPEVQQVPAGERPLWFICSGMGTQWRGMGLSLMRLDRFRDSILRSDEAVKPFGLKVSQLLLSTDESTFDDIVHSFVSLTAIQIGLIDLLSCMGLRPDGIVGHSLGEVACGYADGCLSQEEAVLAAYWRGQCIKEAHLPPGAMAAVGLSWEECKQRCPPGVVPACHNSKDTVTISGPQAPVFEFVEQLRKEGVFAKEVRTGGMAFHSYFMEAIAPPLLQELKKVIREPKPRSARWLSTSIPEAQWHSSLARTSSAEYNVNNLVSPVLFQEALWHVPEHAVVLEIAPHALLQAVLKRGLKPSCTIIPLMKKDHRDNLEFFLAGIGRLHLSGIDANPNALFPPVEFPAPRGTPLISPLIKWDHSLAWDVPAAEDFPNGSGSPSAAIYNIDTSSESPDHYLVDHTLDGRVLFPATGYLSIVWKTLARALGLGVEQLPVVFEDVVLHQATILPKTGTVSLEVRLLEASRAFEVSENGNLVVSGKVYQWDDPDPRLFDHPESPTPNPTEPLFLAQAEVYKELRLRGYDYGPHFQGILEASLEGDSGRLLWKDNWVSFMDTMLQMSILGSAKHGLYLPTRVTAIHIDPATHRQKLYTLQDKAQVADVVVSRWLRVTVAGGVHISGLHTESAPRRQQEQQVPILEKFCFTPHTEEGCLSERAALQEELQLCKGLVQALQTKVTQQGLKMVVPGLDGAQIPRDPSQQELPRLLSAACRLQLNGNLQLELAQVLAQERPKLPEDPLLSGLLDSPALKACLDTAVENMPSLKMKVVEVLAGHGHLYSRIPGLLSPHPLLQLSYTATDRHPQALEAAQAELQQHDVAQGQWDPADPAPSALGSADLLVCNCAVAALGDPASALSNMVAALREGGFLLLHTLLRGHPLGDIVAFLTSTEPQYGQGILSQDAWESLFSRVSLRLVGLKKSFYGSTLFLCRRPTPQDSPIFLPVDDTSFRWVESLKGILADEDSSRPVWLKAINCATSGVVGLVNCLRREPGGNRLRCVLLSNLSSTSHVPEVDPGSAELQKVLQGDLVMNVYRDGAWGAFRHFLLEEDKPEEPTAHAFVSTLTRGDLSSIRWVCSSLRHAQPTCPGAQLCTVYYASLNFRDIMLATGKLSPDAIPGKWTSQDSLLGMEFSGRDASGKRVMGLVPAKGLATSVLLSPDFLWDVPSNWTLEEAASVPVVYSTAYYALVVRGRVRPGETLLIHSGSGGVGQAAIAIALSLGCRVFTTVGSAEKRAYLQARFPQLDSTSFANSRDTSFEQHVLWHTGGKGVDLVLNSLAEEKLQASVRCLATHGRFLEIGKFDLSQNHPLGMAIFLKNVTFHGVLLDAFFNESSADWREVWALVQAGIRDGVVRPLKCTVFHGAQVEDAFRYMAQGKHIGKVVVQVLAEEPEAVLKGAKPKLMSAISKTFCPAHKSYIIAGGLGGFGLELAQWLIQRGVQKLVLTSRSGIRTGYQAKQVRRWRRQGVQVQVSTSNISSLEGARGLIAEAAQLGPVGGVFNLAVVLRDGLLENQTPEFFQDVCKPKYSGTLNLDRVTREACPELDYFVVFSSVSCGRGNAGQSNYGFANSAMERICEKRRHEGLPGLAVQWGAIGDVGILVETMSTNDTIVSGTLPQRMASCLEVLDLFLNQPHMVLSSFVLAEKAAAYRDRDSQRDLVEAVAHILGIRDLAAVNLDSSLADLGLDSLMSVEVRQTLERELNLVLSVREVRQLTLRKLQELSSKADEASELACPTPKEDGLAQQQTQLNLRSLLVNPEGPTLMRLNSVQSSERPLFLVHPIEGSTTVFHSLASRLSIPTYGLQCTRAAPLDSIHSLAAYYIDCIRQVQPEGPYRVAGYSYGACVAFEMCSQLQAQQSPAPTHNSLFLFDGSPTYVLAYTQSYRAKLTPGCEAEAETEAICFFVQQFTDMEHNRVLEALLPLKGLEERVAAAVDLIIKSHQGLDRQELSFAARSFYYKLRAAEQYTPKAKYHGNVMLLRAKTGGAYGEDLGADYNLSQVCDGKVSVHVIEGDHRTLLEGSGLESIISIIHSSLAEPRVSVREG", "test": "FASN enzyme activity assay, fluorescence-based detection of CoA with CPM", "assay_type": "biochemical", "conditions": "5 nM FASN, 150 μM NADPH, 10 μM acetyl-CoA, 25 μM malonyl-CoA, 90 minutes incubation; read-out: IC50 data for Additional Compounds of Formulae I-V(a): Activity", "in_short": "(§1)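 Human GST-tagged FASN, baculovirus-expressed (5 nM), in 50 mM HEPES pH 7.5 with 150 μM NADPH, 10 μM acetyl-CoA, 25 μM malonyl-CoA, 0.5% DMSO; malonyl-CoA-started, 90 min. Released CoA detected with CPM (50 μM dilution), 30 min, fluorescence ex 390/em 530. IC50 from variable-slope sigmoidal fit of % inhibition versus log concentration.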", "units": {"IC50": "nM"}}
{"compound": "CCNC(=O)N1CCC(Oc2ccc(-c3ccc4ccnn4c3C)cc2)CC1", "note": "[Example 536, N-Ethyl-4-[4-(7-methylpyrazolo[1,5-a]pyridin-6-yl)phenoxy]piperidine-1-carboxamide]", "IC50": "1000 to 10000"}
{"compound": "CCNC(=O)N1CCC(Oc2ccc(-c3ccn4ccnc4c3C)cc2)CC1", "note": "[Example 629, N-Ethyl-4-[4-(8-methylimidazo[1,2-a]pyridin-7-yl)phenoxy]piperidine-1-carboxamide, HCl]", "IC50": "1000 to 10000"}
{"compound": "Cc1c(-c2ccc(OC3CCN(C(=O)SC(C)C)CC3)cc2)ccc2cccnc12", "note": "[Example 618, S-Isopropyl 4-[4-(8-methyl-7-quinolyl)phenoxy]piperidine-1-carbothioate]", "IC50": "1000 to 10000"}
{"compound": "Cc1c(-c2ccc(OC3CCN(C(=O)NCCN(C)C)CC3)cc2)ccc2cccnc12", "note": "[Example 545, N-(2-Dimethylaminoethyl)-4-[4-(8-methyl-7-quinolyl)phenoxy]piperidine-1-carboxamide HCl]", "IC50": "1 to 99"}
{"compound": "Cc1c(-c2ccc(OC3CCN(C(=O)C4(N)CCC4)CC3)cc2)ccc2cccnc12", "note": "[Example 627, (1-Aminocyclobutyl)-[4-[4-(8-methyl-7-quinolyl)phenoxy]-1-piperidyl]-methanone]", "IC50": "1000 to 10000"}
{"molecular_target": "T1, recombinant human baculovirus-expressed GST-tagged FASN", "test": "FASN enzyme activity assay, fluorescence-based detection of CoA with CPM", "assay_type": "biochemical", "conditions": "5 nM FASN, 150 μM NADPH, 10 μM acetyl-CoA, 25 μM malonyl-CoA, 90 minutes incubation; read-out: IC50 data for Compounds of Formulae I-V/V(a): Activity", "in_short": "as §1", "units": {"IC50": "nM"}}
{"compound": "O=C([C@H]1CCCO1)N1CCC(Oc2ccc(-c3cc4ccccc4cn3)cc2)CC1", "note": "[Example 46, [4-(4-Isoquinolin-3-yl-phenoxy)-piperidin-1-yl]-(R)-tetrahydrofuran-2-yl-methanone]", "IC50": "1 to 99"}
{"compound": "CCC(=O)N1CCC(Oc2ccc(-c3cnc4cccc(C)c4c3)cc2)CC1", "note": "[Example 460, 1-{4-[4-(5-Methylquinolin-3-yl)-phenoxy]-piperidin-1-yl}-propan-1-one, HCl]", "IC50": "100 to 999"}
{"compound": "Cc1c(-c2ccc(OC3CCN(C(=O)N4CCCC4)CC3)cc2)ccc2cccnc12", "note": "[Example 94, [4-[4-(8-methyl-7-quinolyl)phenoxy]-1-piperidyl]-pyrrolidin-1-yl-methanone]", "IC50": "1 to 99"}
{"compound": "CCC(=O)N1CCC(Oc2ccc(-c3ccc4cccnc4c3OCCCN3CCCC3)cc2)CC1", "note": "[Example 175, 1-(4-{4-[8-(3-Pyrrolidin-1-yl-propoxy)-quinolin-7-yl]-phenoxy}-piperidin-1-yl)-propan-1-one, HCl]", "IC50": "1000 to 10000"}
{"compound": "Cc1c(-c2ccc(O[C@@H]3CCN4C(=O)CC[C@H]4C3)cc2)ccc2cccnc12", "note": "(racemic) [Example 356, (±)-(7R,8aS)-7-(4-(8-Methylquinolin-7-yl)phenoxy)hexahydroindolizin-3(2H)-one]", "IC50": "1000 to 10000"}
{"compound": "CN(C)c1c(-c2ccc(OC3CCN(C(=O)C4CC4)CC3)cc2)ccc2cccnc12", "note": "[Example 333, Cyclopropyl-{4-[4-(8-dimethylamino-quinolin-7-yl)-phenoxy]-piperidin-1-yl}-methanone]", "IC50": "1000 to 10000"}
{"compound": "O=C(N1CCC(Oc2ccc(-c3ccc4cncn4c3)cc2)CC1)C1(O)CC1", "note": "[Example 302, (1-Hydroxycyclopropyl)-[4-(4-imidazo[1,5-a]pyridin-6-yl-phenoxy)-piperidin-1-yl]-methanone]", "IC50": "1 to 99"}
{"compound": "COc1cc(OC2CCN(C(=O)C3CC3)CC2)ccc1-c1cnc2ccccc2c1", "note": "[Example 211, Cyclopropyl-[4-(3-methoxy-4-quinolin-3-yl-phenoxy)-piperidin-1-yl]-methanone]", "IC50": "1000 to 10000"}
{"compound": "O=C(C1CC1)N1CCC(Oc2ccc(-c3cnc4ccccc4c3)nc2)CC1", "note": "[Example 142, Cyclopropyl-[4-(6-quinolin-3-yl-pyridin-3-yloxy)-piperidin-1-yl]-methanone, 2HCl]", "IC50": "1000 to 10000"}
{"compound": "CCC(=O)N1CCC(Oc2ccc(-c3ccc4cccnc4c3OC(C)C)cc2)CC1", "note": "[Example 169, 1-{4-[4-(8-Isopropoxyquinolin-7-yl)-phenoxy]-piperidin-1-yl}-propan-1-one, HCl]", "IC50": "100 to 999"}
{"compound": "O=C([C@H]1CCCO1)N1CCC(Oc2ccc(-c3ccc4nccn4c3Cl)cc2)CC1", "note": "[Example 295, {4-[4-(5-Chloroimidazo[1,2-a]pyridin-6-yl)-phenoxy]-piperidin-1-yl}-(R)-tetrahydrofuran-2-yl-methanone]", "IC50": "1 to 99"}
{"compound": "COc1cc(OC2CCN(C(=O)C(C)C)CC2)ccc1-c1cnc2ccccc2c1", "note": "[Example 210, 1-[4-(3-Methoxy-4-quinolin-3-yl-phenoxy)-piperidin-1-yl]-2-methyl-propan-1-one]", "IC50": "1000 to 10000"}
{"compound": "CCC(=O)N1CCC(Oc2ccc(-c3cnc4ccccc4c3)cc2C)CC1", "note": "[Example 212, 1-[4-(2-Methyl-4-quinolin-3-yl-phenoxy)-piperidin-1-yl]-propan-1-one]", "IC50": "1000 to 10000"}
{"compound": "CCC(=O)N1CCC(Sc2ccc(-c3ccc4cccnc4c3)cc2)CC1", "note": "[Example 516, 1-(4-((4-(quinolin-7-yl)phenyl)thio)piperidin-1-yl)propan-1-one, HCl]", "IC50": "1 to 99"}
{"compound": "Cc1c(-c2ccc(OC3CCN(C(=O)[C@H]4CC4(C)C)CC3)cc2)ccc2cccnc12", "note": "[Example 321, ((S)-2,2-Dimethylcyclopropyl)-{4-[4-(8-methyl-quinolin-7-yl)-phenoxy]-piperidin-1-yl}-methanone]", "IC50": "100 to 999"}
{"compound": "O=C(C1CC1)N1CCC(Oc2ccc(-c3ccc4cnc(Cl)cc4c3)cc2)CC1", "note": "[Example 414, {4-[4-(3-Chloroisoquinolin-6-yl)-phenoxy]-piperidin-1-yl}-cyclopropyl-methanone]", "IC50": "1000 to 10000"}
{"compound": "O=C(C1CC1)N1CCC(Oc2ccc(-c3ccc4nccn4c3Cl)cc2)CC1", "note": "[Example 297, {4-[4-(5-Chloroimidazo[1,2-a]pyridin-6-yl)-phenoxy]-piperidin-1-yl}-cyclopropylmethanone]", "IC50": "100 to 999"}
{"compound": "CCC(=O)N1CC[C@@H](Oc2ccc(-c3cnc4ccccc4c3)cc2)C1", "note": "[Example 345, (R)-1-(3-(4-(quinolin-3-yl)phenoxy)pyrrolidin-1-yl)propan-1-one, HCl]", "IC50": "1000 to 10000"}
{"compound": "COc1cc2cc(-c3ccc(OC4CCN(C(=O)C5CCC5)CC4)cc3)ccc2cn1", "note": "[Example 417, Cyclobutyl-{4-[4-(3-methoxyisoquinolin-6-yl)-phenoxy]-piperidin-1-yl}-methanone]", "IC50": "100 to 999"}
{"compound": "Cc1nccc2c(C)c(-c3ccc(OC4CCN(C(=O)C5CC5)CC4)cc3)ccc12", "note": "[Example 473, Cyclopropyl-[4-[4-(1,5-dimethyl-6-isoquinolyl)phenoxy]-1-piperidyl]methanone HCl]", "IC50": "100 to 999"}
{"compound": "Cc1ccc2ncccc2c1-c1ccc(OC2CCN(C(=O)C3CC3)CC2)cc1", "note": "[Example 351, Cyclopropyl(4-(4-(6-methylquinolin-5-yl)phenoxy)piperidin-1-yl)methanone, HCl]", "IC50": "100 to 999"}
{"compound": "CCC(=O)N1CCC(Oc2ccc(-c3cnc4ccccc4c3N)cc2)CC1", "note": "[Example 231, 1-{4-[4-(4-Aminoquinolin-3-yl)-phenoxy]-piperidin-1-yl}-propan-1-one]", "IC50": "1000 to 10000"}
{"compound": "Cn1ncc2ccc(-c3ccc(OC4CCN(C(=O)C5CC5)CC4)cc3)cc21", "note": "[Example 270, Cyclopropyl-{4-[4-(1-methyl-1H-indazol-6-yl)-phenoxy]-piperidin-1-yl}-methanone. TFA salt]", "IC50": "100 to 999"}
{"compound": "Cc1cc2cc(-c3ccc(OC4CCN(C(=O)[C@H]5CCCO5)CC4)cc3)ccc2cn1", "note": "[Example 437, {4-[4-(3-Methylisoquinolin-6-yl)-phenoxy]-piperidin-1-yl}-(R)-tetrahydro-furan-2-yl-methanone]", "IC50": "1 to 99"}
{"compound": "Cn1ncc2ccc(-c3ccc(OC4CCN(C(=O)C5CCC5)CC4)cc3)cc21", "note": "[Example 271, Cyclobutyl-{4-[4-(1-methyl-1H-indazol-6-yl)-phenoxy]-piperidin-1-yl}-methanone, TFA salt]", "IC50": "100 to 999"}
{"compound": "Nc1cc2cc(-c3ccc(OC4CCN(C(=O)C5CC5)CC4)cc3)ccc2cn1", "note": "[Example 423, {4-[4-(3-Aminoisoquinolin-6-yl)-phenoxy]-piperidin-1-yl}-cyclopropyl-methanone]", "IC50": "100 to 999"}
{"compound": "Cc1c(-c2ccc(O[C@H]3C[C@H]4CC[C@@H](C3)N4C(=O)[C@H]3CCCO3)cc2)ccc2cccnc12", "note": "[Example 371, {endo-3-[4-(8-Methylquinolin-7-yl)-phenoxy]-8-aza-bicyclo[3.2.1]oct-8-yl}-(R)-tetrahydrofuran-2-yl-methanone, HCl]", "IC50": "1 to 99"}
{"compound": "CCC(=O)N1CCC(Oc2ccc(-c3ccc(Oc4ccccc4)nc3)cc2)CC1", "note": "[Example 389, 1-{4-[4-(6-Phenoxy-pyridin-3-yl)-phenoxy]-piperidin-1-yl}-propan-1-one]", "IC50": "1000 to 10000"}
{"compound": "CN1CCN(c2c(-c3ccc(OC4CCN(C(=O)[C@H]5CCCO5)CC4)cc3)cnc3ccccc23)CC1", "note": "[Example 240, (4-{4-[4-(4-Methylpiperazin-1-yl)-quinolin-3-yl]-phenoxy}-piperidin-1-yl)-(R)-tetrahydrofuran-2-yl-methanone]", "IC50": "1000 to 10000"}
{"compound": "CCC(=O)N1CCC(Oc2ccc(-c3ccc4ccccc4c3)cc2)CC1", "note": "[Example 10, 1-[4-(4-Naphthalen-2-yl-phenoxy)-piperidin-1-yl]-propan-1-one]", "IC50": "1 to 99"}
{"compound": "CCC(=O)N1CCC(Oc2ccc(-c3ccc4c(Cl)ccnc4c3)cc2)CC1", "note": "[Example 259, 1-{4-[4-(4-Chloroquinolin-7-yl)-phenoxy]-piperidin-1-yl}-propan-1-one, TFA salt]", "IC50": "100 to 999"}
{"compound": "CCC(=O)N1CCC(Oc2ccc(-c3cnc4sccc4c3)cc2)CC1", "note": "[Example 250, 1-[4-(4-Thieno[2,3-b]pyridin-5-yl-phenoxy)-piperidin-1-yl]-propan-1-one, TFA salt]", "IC50": "1 to 99"}
{"compound": "CCC(=O)N1CCC(Oc2ccc(-c3ccc4c(Cl)nccc4c3)cc2)CC1", "note": "[Example 419, 1-{4-[4-(1-Chloroisoquinolin-6-yl)-phenoxy]-piperidin-1-yl}-propan-1-one]", "IC50": "100 to 999"}
{"compound": "CCC(=O)N1CCC(Oc2ccc(-c3cnc4cc(OC)c(C)cc4c3)cc2)CC1", "note": "[Example 441, 1-{4-[4-(7-Methoxy-6-methylquinolin-3-yl)-phenoxy]-piperidin-1-yl}-propan-1-one]", "IC50": "1000 to 10000"}
